# Test results as given in patent US5847092A (Zambon Group S.p.A., priority 1994, dated 1998).
# Like-named read-outs stand apart in the source and are kept apart here.
# Key:
# [1] = tested on: Gram-positive and Gram-negative bacteria; conditions: literature; cited from earlier work
# [2] = literature; cited from earlier work
# [3] = literature; cited from earlier work; remark: listed apart in the source
# eukaryotic parasites = conditions: literature; cited from earlier work
# [4] = tested on: Staphylococcus aureus PV 14; experiment: In vitro antibacterial activity, MIC, broth microdilution; assay type: cell-based; conditions: Staphylococcus aureus, PV14; S. aureus PV 14; MHB; 37° C., 18 hours; read-out: minimum inhibiting concentration MIC
# Summary of the method: (§1)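 MIC values, in μg/ml, correspond to the lowest antibiotic concentration preventing bacterial development after 18 hours at 37 °C. Testing used graded twofold broth dilution in Mueller Hinton Broth, with 5% horse serum added for Streptococcus pneumoniae and Streptococcus pyogenes.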
# [5] = tested on: Klebsiella pneumoniae ZC 2; experiment: as above; assay type: cell-based; conditions: Klebsiella pneumoniae, ZC2; K. pneumoniae ZC 2; MHB; 37° C., 18 hours; read-out: minimum inhibiting concentration MIC
# Summary of the method: as §1
# [6] = tested on: Streptococcus pneumoniae BS 3; experiment: as above; assay type: cell-based; conditions: Streptococcus pneumoniae, BS3; S. pneumoniae BS 3; MHB + 5% horse serum; 37° C., 18 hours; read-out: minimum inhibiting concentration MIC
# Summary of the method: as §1
# [7] = tested on: Streptococcus pneumoniae BS 4; experiment: as above; assay type: cell-based; conditions: Streptococcus pneumoniae, BS4; S. pneumoniae BS 4; MHB + 5% horse serum; 37° C., 18 hours; read-out: minimum inhibiting concentration MIC
# Summary of the method: as §1
# [8] = tested on: Escherichia coli ATCC 25922; experiment: as above; assay type: cell-based; conditions: Escherichia coli, ATCC25922; E. coli ATCC 25922; MHB; 37° C., 18 hours; read-out: minimum inhibiting concentration MIC
# Summary of the method: as §1
# [9] = tested on: Streptococcus pyogenes A 26; experiment: as above; assay type: cell-based; conditions: Streptococcus pyogenes, A26; S. pyogenes A 26; MHB + 5% horse serum; 37° C., 18 hours; read-out: minimum inhibiting concentration MIC
# Summary of the method: as §1
# [10] = tested on: Enterococcus faecalis ATCC 29212; experiment: as above; assay type: cell-based; conditions: Enterococcus faecalis, ATCC29212; E. faecalis ATCC 29212; MHB; 37° C., 18 hours; read-out: minimum inhibiting concentration MIC
# Summary of the method: as §1
# [11] = tested on: Streptococcus pyogenes C 203; experiment: as above; assay type: cell-based; conditions: Streptococcus pyogenes, C203; S. pyogenes C 203; MHB + 5% horse serum; 37° C., 18 hours; read-out: minimum inhibiting concentration MIC
# Summary of the method: as §1
# [12] = tested on: Streptococcus pyogenes C 203; experiment: In vivo antibacterial activity, experimental pulmonary infection in mouse; conditions: for ED50: Streptococcus pyogenes, C203, ip, 240 h, intraperitoneal single dose, read-out: average protecting dose PD50
# Procedure: The in vivo antibacterial activity of the compounds of formula (I), expressed as average protecting dose PD50 (mg/Kg), was evaluated by means of experimental pulmonary infection induced in mouse by Streptococcus pyogenes (example 23).
# b) In vivo antibacterial activity
# The therapeutical effectiveness, expressed as average protecting dose (PD50), of the considered compounds of formula (I) was evaluated by experimental pulmonary infection induced in mouse by Streptococcus pyogenesC 203.
# Charles River albin mice (strain CD 1), of body weight comprised between 23-35 g, stabulated in groups of 6 for cage and normo-feeded with standard diet and water ad libitum were used. A suspension of S. pyogenes C 203 (corresponding about to 10^8 UFC) in tryptose broth (0.05 ml) was intranasally administered to each mouse anesthesized with a mixture of ethyl ether and chloroform.
# The compounds under examination were intraperitoneally administered as a single dose, in 0.2% Tween suspension, 24 hours before or 1 hour after the infection.
# Mice mortality observation was prolonged up to 10 days from the infection.
# PD50 calculation, expressed as (mg/Kg), was carried out through the analysis of probit.
# In vivo antibacterial activity, expressed as average protecting dose PD50 (mg/Kg), 24 hours before and 1 hour after the experimental pulmonary infection induced in mouse by Streptococcus pyogenes C 203, of the compounds 4, 10, 16-19, 21, 23, 26-27, 29-30, 33-35 and 38 and of the reference compounds Roxithromycin and Clarithromycin.
Compound,spectrum of activity in vitro (in words) [1],pharmacokinetic properties / bioavailability (in words) [2],stability to the acids (in words) [3],activity against eukaryotic parasites (in words) (eukaryotic parasites),MIC [4] [µg/mL],MIC [5] [µg/mL],MIC [6] [µg/mL],MIC [7] [µg/mL],MIC [8] [µg/mL],MIC [9] [µg/mL],MIC [10] [µg/mL],MIC [11] [µg/mL],ED50 ([12]; 1 hour after infection) [mg/kg],ED50 ([12]; 24 hours before infection) [mg/kg],"in vivo activity, pulmonary infection (in words) ([12]; administered 24 hours before the infection)"
CC[C@H]1OC(=O)[C@H](C)[C@@H](O[C@H]2C[C@@](C)(OC)[C@@H](O)[C@H](C)O2)[C@H](C)[C@@H](O[C@@H]2O[C@H](C)C[C@H](N(C)C)[C@H]2O)[C@](C)(O)C[C@@H](C)C(=NOCCN(C)C)[C@H](C)[C@@H](O)[C@]1(C)O [Erythromycin A 9-[0-[(2-dimethylamino)ethyl]oxime]],comparable to that of Erythromycin A,better pharmacokinetic properties,superior stability to the acids,–,–,–,–,–,–,–,–,–,–,–,–
CC[C@H]1OC(=O)[C@H](C)[C@@H](O[C@H]2C[C@@](C)(OC)[C@@H](O)[C@H](C)O2)[C@H](C)[C@@H](O[C@@H]2O[C@H](C)C[C@H](N(C)C)[C@H]2O)[C@](C)(O)C[C@@H](C)C(=O)[C@H](C)[C@@H](O)[C@]1(C)O [Erythromycin A],antibacterial activity mainly against Gram-positive microorganisms,–,–,active against eukaryotic parasites,–,–,–,–,–,–,–,–,–,–,–
"CC[C@H]1OC(=O)[C@H](C)[C@@H](O[C@H]2C[C@@](C)(OC)[C@@H](O)[C@H](C)O2)[C@H](C)[C@@H](O[C@@H]2O[C@H](C)C[C@H](N(C)C)[C@H]2O)[C@](C)(O)C[C@@H](C)/C(=N\OCOCCOC)[C@H](C)[C@@H](O)[C@]1(C)O [Roxithromycin, Erythromycin A 9-[0-[(2-methoxyethoxy)methyl]oxime], reference compound]",comparable to that of Erythromycin A,better pharmacokinetic properties,superior stability to the acids,–,1,256,0.0312,0.0625,28,0.0625,4,0.0625,0.9,> 25,inactive
